According to patent US12479847B2 (DANA-FARBER CANCER INSTITUTE, INC., priority 2019, dated 2025):

Columns and labels:
Test in all cases: KINOMEscan (ScanMAX) kinase profiling
Format in all cases: binding
[1] = biological target: T1, panel of 468 kinases (Plasmodium falciparum, UniProt P62344); conditions: PFCDPK1(P.falciparum); 1 μM; read-out: % control
T1 construct: purchased KINOMEscan (ScanMAX) service
Description: (§1) The kinase selectivity of inventive compounds 12, 75, and 77 was evaluated by KINOMEscan®. KINOMEscan® (ScanMAX™) analysis was performed against a near comprehensive panel of 468 kinases. The control percentage (% control) for inventive compounds at 1 μM in DMSO was determined by Equation 1: % control=(inventive compound−positive control)/(negative control−positive control)×100%, Equation 1
(§2) wherein the positive control is a compound with a % control value of 0% relative light units (RLU), and the negative control (i.e., DMSO) has % control value of 100% RLU. The enzyme selectivity in the present invention is defined as follows: inventive compounds are considered active for an enzyme when the observed % control is less than 35% (<35%).

[2] = biological target: T2, panel of 468 kinases (Homo sapiens, UniProt P29322); conditions: EPHA8; 1 μM; read-out: % control
T2 construct: purchased KINOMEscan (ScanMAX) service
T2 sequence (P29322 28-1005): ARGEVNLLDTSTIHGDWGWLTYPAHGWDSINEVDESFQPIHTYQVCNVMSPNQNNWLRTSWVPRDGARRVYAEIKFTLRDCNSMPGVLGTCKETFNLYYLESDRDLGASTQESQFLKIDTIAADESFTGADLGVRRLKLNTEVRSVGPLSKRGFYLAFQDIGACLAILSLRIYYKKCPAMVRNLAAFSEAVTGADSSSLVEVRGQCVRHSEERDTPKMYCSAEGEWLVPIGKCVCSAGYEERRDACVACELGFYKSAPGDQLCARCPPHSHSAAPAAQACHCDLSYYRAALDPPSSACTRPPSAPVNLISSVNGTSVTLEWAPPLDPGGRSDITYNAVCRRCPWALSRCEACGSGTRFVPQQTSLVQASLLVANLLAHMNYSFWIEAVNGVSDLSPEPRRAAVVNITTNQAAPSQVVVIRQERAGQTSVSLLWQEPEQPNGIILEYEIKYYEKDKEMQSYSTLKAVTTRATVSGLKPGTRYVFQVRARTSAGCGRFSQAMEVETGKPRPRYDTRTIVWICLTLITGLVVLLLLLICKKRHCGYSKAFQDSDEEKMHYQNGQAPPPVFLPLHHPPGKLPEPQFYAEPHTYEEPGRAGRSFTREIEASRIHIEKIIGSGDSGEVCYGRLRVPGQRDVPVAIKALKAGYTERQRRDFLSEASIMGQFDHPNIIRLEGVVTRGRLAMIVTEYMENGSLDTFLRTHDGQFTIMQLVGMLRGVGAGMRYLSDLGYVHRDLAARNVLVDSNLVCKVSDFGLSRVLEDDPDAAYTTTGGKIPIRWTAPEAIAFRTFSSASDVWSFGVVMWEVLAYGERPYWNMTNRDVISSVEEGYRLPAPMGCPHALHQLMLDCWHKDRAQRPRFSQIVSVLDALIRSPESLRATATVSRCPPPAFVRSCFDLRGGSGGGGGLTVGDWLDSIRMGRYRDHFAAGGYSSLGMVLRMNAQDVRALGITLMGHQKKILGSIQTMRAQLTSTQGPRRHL
Description: as §1, §2

[3] = biological target: T3, panel of 468 kinases (Homo sapiens, UniProt P00533, L858R); conditions: EGFR(L858R); 1 μM; read-out: % control
T3 construct: purchased KINOMEscan (ScanMAX) service
T3 sequence (P00533 25-1210 L858R): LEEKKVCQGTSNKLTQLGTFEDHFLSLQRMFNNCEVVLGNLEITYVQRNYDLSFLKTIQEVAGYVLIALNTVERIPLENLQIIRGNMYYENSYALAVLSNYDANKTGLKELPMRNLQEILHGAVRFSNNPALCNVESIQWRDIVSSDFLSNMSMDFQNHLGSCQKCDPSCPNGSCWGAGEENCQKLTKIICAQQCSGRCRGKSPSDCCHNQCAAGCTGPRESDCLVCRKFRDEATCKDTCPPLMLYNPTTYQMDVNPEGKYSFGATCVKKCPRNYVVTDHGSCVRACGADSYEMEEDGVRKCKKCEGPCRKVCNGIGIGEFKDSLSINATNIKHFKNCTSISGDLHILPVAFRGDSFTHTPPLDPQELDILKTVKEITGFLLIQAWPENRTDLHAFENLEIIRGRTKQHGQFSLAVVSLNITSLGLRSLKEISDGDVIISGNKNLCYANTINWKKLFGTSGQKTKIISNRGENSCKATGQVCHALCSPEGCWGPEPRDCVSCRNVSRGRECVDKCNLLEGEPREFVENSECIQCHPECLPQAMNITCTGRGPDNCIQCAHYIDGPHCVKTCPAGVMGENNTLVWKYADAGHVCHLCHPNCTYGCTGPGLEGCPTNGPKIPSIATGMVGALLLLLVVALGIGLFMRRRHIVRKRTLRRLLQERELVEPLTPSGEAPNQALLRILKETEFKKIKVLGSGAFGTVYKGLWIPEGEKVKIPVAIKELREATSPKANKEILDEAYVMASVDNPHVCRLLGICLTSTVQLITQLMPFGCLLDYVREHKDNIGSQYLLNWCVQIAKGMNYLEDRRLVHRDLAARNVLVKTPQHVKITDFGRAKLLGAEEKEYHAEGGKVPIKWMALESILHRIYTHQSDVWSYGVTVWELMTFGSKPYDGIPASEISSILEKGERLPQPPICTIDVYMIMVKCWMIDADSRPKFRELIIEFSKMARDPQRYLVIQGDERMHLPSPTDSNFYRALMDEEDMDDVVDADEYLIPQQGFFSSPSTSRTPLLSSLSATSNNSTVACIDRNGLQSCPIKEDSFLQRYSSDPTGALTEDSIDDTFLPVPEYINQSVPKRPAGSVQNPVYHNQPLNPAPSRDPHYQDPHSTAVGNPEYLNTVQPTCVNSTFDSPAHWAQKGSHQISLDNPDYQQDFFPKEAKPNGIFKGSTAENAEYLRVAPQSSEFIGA
Description: as §1, §2

[4] = biological target: T4, panel of 468 kinases (Homo sapiens, UniProt Q9Y2U5); conditions: MAP3K2; 1 μM; read-out: % control
T4 construct: purchased KINOMEscan (ScanMAX) service
T4 sequence (Q9Y2U5 1-619): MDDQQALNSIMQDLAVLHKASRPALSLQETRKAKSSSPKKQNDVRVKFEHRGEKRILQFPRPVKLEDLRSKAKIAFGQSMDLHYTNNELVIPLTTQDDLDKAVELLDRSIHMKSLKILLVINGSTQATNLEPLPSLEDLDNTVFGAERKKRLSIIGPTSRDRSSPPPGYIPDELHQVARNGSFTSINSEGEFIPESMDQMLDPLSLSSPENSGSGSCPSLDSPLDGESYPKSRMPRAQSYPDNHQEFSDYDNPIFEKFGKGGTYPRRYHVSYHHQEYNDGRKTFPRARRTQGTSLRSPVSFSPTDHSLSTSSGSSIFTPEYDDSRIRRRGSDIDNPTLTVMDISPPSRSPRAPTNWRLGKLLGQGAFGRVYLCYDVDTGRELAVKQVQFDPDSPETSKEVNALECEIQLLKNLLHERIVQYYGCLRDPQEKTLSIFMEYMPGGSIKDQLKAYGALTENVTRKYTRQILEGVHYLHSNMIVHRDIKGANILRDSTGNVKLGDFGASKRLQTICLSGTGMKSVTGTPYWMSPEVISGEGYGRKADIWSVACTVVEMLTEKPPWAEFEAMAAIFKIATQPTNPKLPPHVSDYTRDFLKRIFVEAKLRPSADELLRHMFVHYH
Description: as §1, §2

[5] = biological target: T5, panel of 468 kinases (Homo sapiens, UniProt Q9UQM7); conditions: CAMK2A; 1 μM; read-out: % control
T5 construct: purchased KINOMEscan (ScanMAX) service
T5 sequence (Q9UQM7 whole entry): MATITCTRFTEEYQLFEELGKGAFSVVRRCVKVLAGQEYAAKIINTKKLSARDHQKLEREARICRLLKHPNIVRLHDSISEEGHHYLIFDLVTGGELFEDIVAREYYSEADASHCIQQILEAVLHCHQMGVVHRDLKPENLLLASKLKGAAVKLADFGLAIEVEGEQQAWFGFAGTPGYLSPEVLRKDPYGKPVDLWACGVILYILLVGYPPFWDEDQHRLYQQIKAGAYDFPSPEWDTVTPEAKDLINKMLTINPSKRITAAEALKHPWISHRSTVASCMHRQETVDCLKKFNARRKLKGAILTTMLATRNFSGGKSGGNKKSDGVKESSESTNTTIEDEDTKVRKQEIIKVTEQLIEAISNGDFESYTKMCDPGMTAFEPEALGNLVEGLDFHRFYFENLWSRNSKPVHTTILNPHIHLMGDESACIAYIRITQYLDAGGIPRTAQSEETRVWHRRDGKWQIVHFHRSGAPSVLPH
Description: as §1, §2

[6] = biological target: T6, panel of 468 kinases (Homo sapiens, UniProt Q9NYL2); conditions: ZAK; 1 μM; read-out: % control
T6 construct: purchased KINOMEscan (ScanMAX) service
T6 sequence (Q9NYL2 whole entry): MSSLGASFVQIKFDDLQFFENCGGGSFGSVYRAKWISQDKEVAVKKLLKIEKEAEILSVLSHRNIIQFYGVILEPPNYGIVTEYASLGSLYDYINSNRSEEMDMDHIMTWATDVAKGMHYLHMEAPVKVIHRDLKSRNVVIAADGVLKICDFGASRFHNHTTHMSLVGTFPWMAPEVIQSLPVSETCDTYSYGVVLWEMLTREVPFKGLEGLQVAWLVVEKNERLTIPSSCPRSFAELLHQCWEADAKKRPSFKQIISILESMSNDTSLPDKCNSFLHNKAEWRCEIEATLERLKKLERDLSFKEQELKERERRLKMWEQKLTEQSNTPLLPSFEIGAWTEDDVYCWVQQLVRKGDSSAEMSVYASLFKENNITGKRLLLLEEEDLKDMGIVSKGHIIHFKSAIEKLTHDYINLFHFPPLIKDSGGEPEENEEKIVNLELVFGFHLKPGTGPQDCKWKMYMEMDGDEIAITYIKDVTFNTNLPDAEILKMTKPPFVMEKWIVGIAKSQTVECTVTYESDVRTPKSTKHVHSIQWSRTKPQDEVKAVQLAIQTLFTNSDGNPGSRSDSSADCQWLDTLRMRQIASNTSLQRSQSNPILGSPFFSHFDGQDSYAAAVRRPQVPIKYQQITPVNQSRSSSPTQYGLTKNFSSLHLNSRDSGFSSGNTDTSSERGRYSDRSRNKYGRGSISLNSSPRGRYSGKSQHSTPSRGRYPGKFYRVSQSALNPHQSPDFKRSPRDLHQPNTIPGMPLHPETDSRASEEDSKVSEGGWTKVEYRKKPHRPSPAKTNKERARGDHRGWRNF
Description: as §1, §2

[7] = biological target: T7, panel of 468 kinases (Homo sapiens, UniProt Q8NE63); conditions: HIPK4; 1 μM; read-out: % control
T7 construct: purchased KINOMEscan (ScanMAX) service
T7 sequence (Q8NE63 1-616): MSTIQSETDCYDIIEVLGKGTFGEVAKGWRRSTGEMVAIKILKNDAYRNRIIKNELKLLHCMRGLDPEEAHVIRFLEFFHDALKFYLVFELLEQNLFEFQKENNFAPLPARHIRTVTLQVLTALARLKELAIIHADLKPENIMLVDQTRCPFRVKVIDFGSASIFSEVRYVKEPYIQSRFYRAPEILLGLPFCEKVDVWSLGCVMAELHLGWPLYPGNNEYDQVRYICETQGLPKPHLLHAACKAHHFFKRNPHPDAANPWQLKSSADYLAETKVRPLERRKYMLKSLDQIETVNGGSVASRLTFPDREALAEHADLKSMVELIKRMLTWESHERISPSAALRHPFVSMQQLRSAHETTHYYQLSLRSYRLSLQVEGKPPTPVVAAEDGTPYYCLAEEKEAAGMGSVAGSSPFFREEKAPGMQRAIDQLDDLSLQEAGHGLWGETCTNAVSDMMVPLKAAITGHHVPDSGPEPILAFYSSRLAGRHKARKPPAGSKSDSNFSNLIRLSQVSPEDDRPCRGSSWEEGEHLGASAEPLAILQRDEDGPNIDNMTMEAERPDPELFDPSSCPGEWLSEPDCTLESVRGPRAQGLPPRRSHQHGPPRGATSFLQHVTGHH
Description: as §1, §2

[8] = biological target: T8, panel of 468 kinases (Homo sapiens, UniProt O00506); conditions: YSK1; 1 μM; read-out: % control
T8 construct: purchased KINOMEscan (ScanMAX) service
T8 sequence (O00506 whole entry): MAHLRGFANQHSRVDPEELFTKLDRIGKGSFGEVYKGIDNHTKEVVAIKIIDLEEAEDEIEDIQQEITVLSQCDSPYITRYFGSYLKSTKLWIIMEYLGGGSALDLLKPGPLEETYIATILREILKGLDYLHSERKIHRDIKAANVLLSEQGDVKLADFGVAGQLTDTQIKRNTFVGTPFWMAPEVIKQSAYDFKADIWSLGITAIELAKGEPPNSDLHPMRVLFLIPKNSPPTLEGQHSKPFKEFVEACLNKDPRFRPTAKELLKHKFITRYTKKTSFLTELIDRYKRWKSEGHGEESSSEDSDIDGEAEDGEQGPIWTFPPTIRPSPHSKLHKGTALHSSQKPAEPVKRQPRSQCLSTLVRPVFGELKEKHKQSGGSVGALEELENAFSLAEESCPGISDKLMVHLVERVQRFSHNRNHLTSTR
Description: as §1, §2

T1 sequence (P62344 whole entry): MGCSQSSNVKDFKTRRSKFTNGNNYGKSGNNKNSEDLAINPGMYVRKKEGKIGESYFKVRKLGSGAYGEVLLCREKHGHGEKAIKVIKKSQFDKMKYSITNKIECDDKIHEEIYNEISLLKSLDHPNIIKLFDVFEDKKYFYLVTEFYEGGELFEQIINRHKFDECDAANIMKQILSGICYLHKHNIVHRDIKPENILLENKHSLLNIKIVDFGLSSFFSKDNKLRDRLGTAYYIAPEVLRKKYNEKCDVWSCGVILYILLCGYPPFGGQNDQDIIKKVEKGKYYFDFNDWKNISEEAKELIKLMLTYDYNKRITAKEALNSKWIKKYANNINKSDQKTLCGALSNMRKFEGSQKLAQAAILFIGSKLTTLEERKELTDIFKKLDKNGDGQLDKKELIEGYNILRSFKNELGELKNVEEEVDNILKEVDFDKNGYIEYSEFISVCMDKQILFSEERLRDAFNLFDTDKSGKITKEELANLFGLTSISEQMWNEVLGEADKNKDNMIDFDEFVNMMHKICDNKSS

SMILES: CNc1nc(Nc2ccc(S(=O)(=O)N3CCC(N4CCOCC4)CC3)cc2OC)nc2[nH]cc(Cl)c12 [Compound 12, 5-chloro-N2-(2-methoxy-4-((4-morpholinopiperidin-1-yl)sulfonyl)phenyl)-N4-methyl-7H-pyrrolo[2,3-d]pyrimidine-2,4-diamine]
- remaining binding at 1 µM [1]: 97%
- remaining binding at 1 µM [2]: 100%
- remaining binding at 1 µM [3]: 100%
- remaining binding at 1 µM [4]: 80%
- remaining binding at 1 µM [5]: 100%
- remaining binding at 1 µM [6]: 100%
- remaining binding at 1 µM [7]: 100%
- remaining binding at 1 µM [8]: 100%

SMILES: CNc1nc(Nc2ccc(C(=O)N3CCC(N4CCOCC4)CC3)c3c2OCO3)nc2[nH]cc(Cl)c12 [Compound 75, (7-((5-chloro-4-(methylamino)-7H-pyrrolo[2,3-d]pyrimidin-2-yl)amino)benzo[d][1,3]dioxol-4-yl)(4-morpholinopiperidin-1-yl)methanone]
- remaining binding at 1 µM [1]: 99%
- remaining binding at 1 µM [2]: 100%
- remaining binding at 1 µM [3]: 100%
- remaining binding at 1 µM [4]: 15%
- remaining binding at 1 µM [5]: 70%
- remaining binding at 1 µM [6]: 100%
- remaining binding at 1 µM [7]: 97%
- remaining binding at 1 µM [8]: 100%

SMILES: CNc1nc(Nc2ccc(P3(=O)CCN(C4CCOCC4)CC3)cc2OC)nc2[nH]cc(Cl)c12 [Compound 77, 4-(4-((5-chloro-4-(methylamino)-7H-pyrrolo[2,3-d]pyrimidin-2-yl)amino)-3-methoxyphenyl)-1-(tetrahydro-2H-pyran-4-yl)-1,4-azaphosphinane 4-oxide]
- remaining binding at 1 µM [1]: 90%
- remaining binding at 1 µM [2]: 100%
- remaining binding at 1 µM [3]: 76%
- remaining binding at 1 µM [4]: 86%
- remaining binding at 1 µM [5]: 88%
- remaining binding at 1 µM [6]: 100%
- remaining binding at 1 µM [7]: 99%
- remaining binding at 1 µM [8]: 100%
